The values below come from patent US8067602B2, “Asymmetric cyanine fluorescent dyes, compositions and their use in staining biological samples” (Shenzhen Mindray Bio-Medical Electronics Co., Ltd., priority 2008, dated 2011).

The conditions of data set [1]: ethanol; cited from earlier work.
The subject of another data set is salmon sperm DNA. Briefly: Fluorescence intensity of dye in PBS with salmon sperm DNA (excitation 633 nm). Type of data set: binding. Particulars: for fluorescence of the dye per se in PBS without nucleic acid: PBS without DNA/RNA; for Relative fluorescence intensity after binding DNA / Relative fluorescence intensity before binding DNA: in PBS; for Relative fluorescence intensity after binding DNA: bound with salmon sperm DNA; for Relative fluorescence intensity before binding DNA: no DNA; for Ratio of increase in fluorescence (after vs before binding): salmon sperm DNA in PBS. As for the experimental part: An amount of Dye-1 was accurately weighed and sufficiently dissolved in 2.5 mL methanol/ethylene glycol (50:50 vol/vol) to prepare a dye solution at a concentration of 5 mM. This solution was filtered before use. Separate amounts of salmon sperm DNA were weighed and dissolved in PBS to obtain PBS buffers containing 3 mg/mL, 1 mg/mL, 0.3 mg/mL, 0.1 mg/mL of DNA. 2-μL aliquots of the prepared 5 mM dye solution were accurately measured and respectively combined in 1 mL PBS with 1 μL of the PBS buffers containing different concentrations of DNA. After reacting for a period of time, the complexes were detected for their emission spectra at the selected excitation wavelength of 633 nm. The detection temperature was at room temperature. The instrument used was fluorescence spectrophotometer Model FL-4500.
FIG. 2 is a comparison of the relative fluorescence strength of Dye-1 in PBS before and after it is bound with DNA.
(§1) The detection procedures followed were those described in Example 10 and Example 11. The fluorescence spectra for the complexes of Dye-2 with different concentrations of DNA or RNA are shown in FIG. 5 and FIG. 6, respectively. The comparisons of fluorescence for Dye-2 before and after it is bound with DNA or with RNA in PBS are shown in FIG. 7 and FIG. 8, respectively.
(§2) The detection procedures followed were those described in Example 10 and Example 11. The comparisons of fluorescence for Dye-3 before and after it bound with DNA or with RNA in PBS are shown in FIG. 9 and FIG. 10, respectively.
Table 1 compares the ratios of increase in fluorescence for Dye-1, Dye-2 and Dye-3 after vs before they bound with salmon sperm DNA in PBS.

Data set [2] deals with soft-shelled turtle (Trionyx sinensis) liver RNA. The data set is described as follows: Fluorescence intensity of dye in PBS with soft-shelled turtle liver RNA (excitation 633 nm). The format is binding. Particulars: for Relative fluorescence intensity after binding RNA / Relative fluorescence intensity before binding RNA: in PBS; for Relative fluorescence intensity after binding RNA: bound with turtle liver RNA; for Relative fluorescence intensity before binding RNA: no RNA; for Ratio of increase in fluorescence (after vs before binding): turtle liver RNA in PBS; for ability to bind to nucleic acids versus Dye-0: concluded from FIG. 11; for increase in fluorescence intensity after binding RNA, comparison of dyes: identical concentrations, FIG. 11. As to the method:
An amount of Dye-1 was accurately weighed and sufficiently dissolved in 2.5 mL methanol/ethylene glycol (50:50 vol/vol) to prepare a dye solution at a concentration of 5 mM. This solution was filtered before use. Separate amounts of soft-shelled turtle (Trionyx sinensis) liver RNA were weighed and dissolved in PBS to obtain PBS buffers containing 30 μg/mL, 10 μg/mL, 3 μg/mL, 1 μg/mL of RNA. 2-μL aliquots of the prepared 5 mM dye solution were accurately measured and respectively combined in 1 mL PBS with 1 μL of the PBS buffers containing different concentrations of RNA. After reacting for a period of time, the complexes were detected for their emission spectra at the selected excitation wavelength of 633 nm. The detection temperature was at room temperature. The instrument used was fluorescence spectrophotometer Model FL-4500.
FIG. 4 is a comparison of the relative fluorescence strength of Dye-1 in PBS before and after it is bound with RNA. As can likewise be seen in the figure, when Dye-1 formed complexes with RNA, there occurred a rapid increase in fluorescence intensity accompanied by a certain degree of red shift of fluorescence, with the maximum […] peak at about 655 nm in the near-infrared region, which can avoid the interference from the background fluorescence of the organisms per se and therefore improve the accuracy of detection.
as §1, §2
Table 2 compares the ratios of increase in fluorescence for Dye-1, Dye-2 and Dye-3 after vs before they bound with soft-shelled turtle (Trionyx sinensis) liver RNA in PBS.
The detection procedure followed was that described in Example 10. The fluorescence spectra for Dye-1, Dye-2 and Dye-0 after they bound in identical concentrations with soft-shelled turtle (Trionyx sinensis) liver RNA are shown in FIG. 11.

The nature of data set [3]: Fluorescence quantum yield in ethanol. The format is physicochemical. Particulars: room temperature, triplicate, Rhodamine B as standard. As for the experimental part:
Each of the dyes were detected in triplicate at room temperature. Fluorescence quantum yields were calculated and averaged. With Rhodamine B as the standard (φF=0.97, ethanol), the fluorescence quantum yield for the known compound M in the ethanol solution was calculated to be φF=1.099×10^−2; for Dye-1, φF=1.590×10^−2; for Dye-2, φF=1.248×10^−2; and for Dye-3, φF=1.181×10^−2. The instrument used was UV-Vis spectrophotometer Model Lambda 35, and fluorescence spectrophotometer Model FL-4500.

For the molecule `CCN(CC)c1ccc2c(-c3ccccc3C(=O)O)c3ccc(=[N+](CC)CC)cc-3oc2c1.[Cl-]` [Rhodamine B], in data set [1], the “fluorescence quantum yield φF of the standard” value is on record as 0.97.

As for `OCCN1C=C/C(=C\C=C\c2sc3ccccc3[n+]2CCOc2ccccc2)c2ccccc21.[Br-]` [Dye-3], in the data set on salmon sperm DNA, the “fluorescence of the dye per se in PBS without nucleic acid” value is given as “weak fluorescence”, the “Relative fluorescence intensity after binding DNA” value is 94.37, the “Relative fluorescence intensity before binding DNA” value is reported as 1.64 and the “Ratio of increase in fluorescence (after vs before binding)” value (“Ratio of increase in fluorescence” for short) turned out to be 55. In data set [2], the “Relative fluorescence intensity after binding RNA” value was 33.57, the “Relative fluorescence intensity before binding RNA” value is recorded as 1.64 and the “Ratio of increase in fluorescence” value stood at 20. Further, the “fluorescence quantum yield φF” value in data set [3] is given as 1.181×10^−2.

Take `CCOC(=O)CCCCC[n+]1c(/C=C/C=C2\C=CN(Cc3ccccc3)c3ccccc32)sc2ccccc21.[Br-]` [Dye-1]: the “change of fluorescence emission strength of dye/DNA complexes with DNA concentration” value with salmon sperm DNA (DNA buffers 0.1-3 mg/mL, FIG. 1) is listed as “increased rapidly with the increase in DNA concentration”. Moreover, in the data set on salmon sperm DNA, the “fluorescence of the dye per se in PBS without nucleic acid” value is on record as “scarcely generated any fluorescence”, the “Relative fluorescence intensity after binding DNA” value came to 68.63, the “Relative fluorescence intensity before binding DNA” value is on record as 1.82 and the “Ratio of increase in fluorescence” value was 38. The “change of fluorescence emission strength of dye/RNA complexes with RNA concentration” value in data set [2] (RNA buffers 1-30 μg/mL, FIG. 3) is listed as “increased rapidly with the increase in RNA concentration”. In data set [2], the “ability to bind to nucleic acids versus Dye-0” value was “superior to Dye-0”; the “increase in fluorescence intensity after binding RNA, comparison of dyes” value is recorded as “largest magnitude of increase in fluorescence intensity”; the “Relative fluorescence intensity after binding RNA” value was 83.24; the “Relative fluorescence intensity before binding RNA” value was found to be 1.82. Further, the “Ratio of increase in fluorescence” value in data set [2] was 46. Also, in data set [3], the “fluorescence quantum yield φF” value is recorded as 1.590×10^−2.

For the molecule `CCN1C=C/C(=C\C=C\c2sc3ccccc3[n+]2CC)c2ccccc21.[I-]` [Dye-0, reference compound], the “fluorescence quantum yield φF” value in data set [3] is 1.099×10^−2.

In the case of `CCOC(=O)CCCN1C=C/C(=C\C=C\c2sc3ccccc3[n+]2CCO)c2ccccc21.[Br-]` [Dye-2], in the data set on salmon sperm DNA, the “fluorescence of the dye per se in PBS without nucleic acid” value is listed as “scarcely generated any fluorescence”, the “Relative fluorescence intensity after binding DNA” value is on record as 102.93, the “Relative fluorescence intensity before binding DNA” value came out at 0.97 and the “Ratio of increase in fluorescence” value turned out to be 106. In data set [2], the “ability to bind to nucleic acids versus Dye-0” value is “superior to Dye-0”; the “increase in fluorescence intensity after binding RNA, comparison of dyes” value was “marked increase in fluorescence intensity”; the “Relative fluorescence intensity after binding RNA” value was 37.28; the “Relative fluorescence intensity before binding RNA” value was found to be 0.97. Further, the “Ratio of increase in fluorescence” value in data set [2] worked out at 38. Besides, the “fluorescence quantum yield φF” value in data set [3] is listed as 1.248×10^−2.
